Laboratory results as given in patent publication US20130116231A1, “TYROSINE KINASE INHIBITORS” (Merck Sharp & Dohme Corp., priority 2010, published 2013).

These compounds were tested against T1, human c-Met (Homo sapiens, UniProt P08581) (assay: in vitro kinase assay (homogeneous time-resolved tyrosine kinase assay, METKA)). Conditions: recombinant GST-tagged c-Met cytosolic domain, HTRF, 50 μM MgATP; read-out: Biological Activity (METKA IC50) Activity Code.
T1 construct: Recombinant GST-tagged cytosolic domains of human c-Met; 6xHis; made in house; host or cells: Sf9 or Sf21 insect cells (baculovirus)
T1 sequence (P08581 956-1390 limits assumed): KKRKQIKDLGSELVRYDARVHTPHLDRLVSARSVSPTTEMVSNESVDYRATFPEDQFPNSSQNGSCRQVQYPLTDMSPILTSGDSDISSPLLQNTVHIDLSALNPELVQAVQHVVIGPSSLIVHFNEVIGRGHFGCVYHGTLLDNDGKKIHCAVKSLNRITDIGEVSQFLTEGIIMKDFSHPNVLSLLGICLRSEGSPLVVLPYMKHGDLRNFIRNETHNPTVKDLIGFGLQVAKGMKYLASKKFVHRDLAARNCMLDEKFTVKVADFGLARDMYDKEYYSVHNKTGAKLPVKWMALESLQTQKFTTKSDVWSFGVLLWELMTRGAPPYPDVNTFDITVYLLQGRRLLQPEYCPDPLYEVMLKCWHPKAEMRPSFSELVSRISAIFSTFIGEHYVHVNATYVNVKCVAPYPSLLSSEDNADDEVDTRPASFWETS
Type: biochemical
From the text: Recombinant GST-tagged cytosolic domains of human c-Met and other receptor tyrosine kinases including mouse c-Met, human Ron, KDR, IGFR, EGFR, FGFR, Mer, TrkA and Tie2 are used to determine whether the compounds of the instant invention modulate the enzymatic activities of these kinases.
Soluble recombinant GST-tagged cytosolic domains of c-Met and other receptor tyrosine kinases are expressed in a baculovirus system (Pharmingen) according to a protocol recommended by the manufacturer. The c-DNA encoding each cytosolic domain is subcloned into a baculovirus expression vector (pGcGHLT-A, B or C, Pharmingen) containing an in frame 6× histidine tag and a GST tag. The resulting plasmid construct and BaculoGold baculovirus DNA (Pharmingen) are used to co-transfect Sf9 or Sf21 insect cells. After confirming expression of GST-tagged kinase fusion, a high titer recombinant baculovirus stock is produced, expression conditions are optimized, and a scaled up expression of rat KDR-GST fusion is performed. The fusion kinase is then purified from the insect cell lysate by affinity chromatography using glutathione agarose (Pharmingen). The purified protein is dialyzed against 50% glycerol, 2 mM DTT, 50 mM Tris-HCl (pH 7.4) and stored at −20° C. The protein concentrations of the fusion proteins are determined using Coomassie Plus Protein Assay (Pierce) with BSA as standard.
The kinase activities of c-Met and other kinases are measured using a modified version of the homogeneous time-resolved tyrosine kinase assay described by Park et al. (1999, Anal. Biochem. 269:94-104).
The procedure for determining the potency of a compound to inhibit c-Met kinase comprises the following steps: • 1. Prepare 3-fold serial diluted compound solutions in 100% dimethyl sulfoxide (DMSO) at 20× of the desired final concentrations in a 96 well plate. • 2. Prepare a master reaction mix containing 6.67 mM MgCl2, 133.3 mM NaCl, 66.7 mM Tris-HCl (pH 7.4), 0.13 mg/ml BSA, 2.67 mM dithiothreitol, 0.27 nM recombinant c-Met and 666.7 nM biotinylated synthetic peptide substrate (biotin-ahx-EQEDEPEGDYFEWLE-CONH2) (SEQ.ID.NO.:1). • 3. In a black assay plate, add 2.5 μl of compound solution (or DMSO) and 37.5 μl of master reaction mix per well. Initiate the kinase reaction by adding 10 μl of 0.25 mM MgATP per well. Allow the reactions to proceed for 80 min at room temperature. The final conditions for the reaction are 0.2 nM c-Met, 0.5 μM substrate, 50 μM MgATP, […], 100 mM NaCl, 2 mM DTT, 0.1 mg/ml BSA, 50 mM Tris (pH 7.4) and 5% DMSO. • 4. Stop the kinase reaction with 50 μl of Stop/Detection buffer containing 10 mM EDTA, 25 mM HEPES, 0.1% TRITON X-100, 0.126 μg/ml Eu-chelate labeled anti-phosphotyrosine antibody PY20 (cat. #AD0067, PerkinElmer) and 45 μg/ml Streptavidin-allophycocyanin conjugate (cat. #PJ25S, Prozyme). • 5. Read HTRF signals on a Victor reader (PerkinElmer) in HTRF mode after 60 min. • 6. IC50 is determined by fitting the observed relationship between compound concentration and HTRF signal with a 4-parameter logistic equation. Essentially the same procedure was used to determine the potency of compounds to inhibit mouse c-Met, human Ron, KDR, IGFR, EGFR, FGFR, Mer, TrkA and Tie2 except that the concentration of enzyme varied in individual assays (0.2 nM mouse c-Met; 2.5 nM Ron, 8 nM KDR; 0.24 nM IGFR; 0.24 nM EGFR; 0.14 nM FGFR; 16 nM Mer; 8 nM TrkA; 8 nM Tie2).

| IC50 [µM] | Compound |
| --- | --- |
| < 0.1 | COc1ccnc2ccc(OCc3nn(-c4cnn(C)c4)ccc3=O)cc12 [Example 48, 3-{[(4-Methoxyquinolin-6-yl)oxy]methyl}-1-(1-methyl-1H-pyrazol-4-yl)pyridazin-4(1H)-one] |
| 0.1 to 1 | COc1ccc2cc(OCc3nn(-c4cnn(C)c4)ccc3=O)ccc2n1 [Example 49, 3-{[(2-methoxyquinolin-6-yl)oxy]methyl}-1-(1-methyl-1H-pyrazol-4-yl)pyridazin-4(1H)-one] |
| < 0.1 | Cc1ccnc2ccc(OCc3nn(-c4cnn(C)c4)ccc3=O)cc12 [Example 50, 1-(1-methyl-1H-pyrazol-4-yl)-3-{[(4-methylquinolin-6-yl)oxy]methyl}pyridazin-4(1H)-one] |
| < 0.1 | NC(=O)c1cccc(-n2ccc(=O)c(COc3ccc4ncccc4c3)n2)c1 [Example 51, 3-{4-Oxo-3-[(quinolin-6-yloxy)methyl]pyridazin-1(4H)-yl}benzamide] |
| 1 to 3 | COCCOc1cnc2ccc(OCc3nn(-c4cccc(C(=O)N(C)C)c4)ccc3=O)cc2c1 [Example 52, 3-[3-({[3-(2-methoxyethoxy)quinolin-6-yl]oxy}methyl)-4-oxopyridazin-1(4H)-yl]-N,N-dimethylbenzamide] |
| < 0.1 | Cn1cc(-n2ccc(=O)c(CCc3ccc4ncccc4c3)n2)cn1 [Example 53, 1-(1-Methyl-1H-pyrazol-4-yl)-3-[2-(quinolin-6-yl)ethyl]pyridazin-4(1H)-one] |
| 1 to 3 | Cn1cc(-n2ccc(=O)c(CCc3ccnc4ccccc34)n2)cn1 [Example 54, 1-(1-methyl-1H-pyrazol-4-yl)-3-(2-quinolin-4-ylethyl)pyridazin-4(1H)-one] |
| 1 to 3 | Cn1cc(-n2ccc(=O)c(CCc3ccnc4[nH]ccc34)n2)cn1 [Example 55, 1-(1-methyl-1H-pyrazol-4-yl)-3-[2-(1H-pyrrolo[2,3-b]pyridin-4-yl)ethyl]pyridazin-4(1H)-one] |
| 1 to 3 | COC(=O)c1ccc(CCc2nn(-c3cnn(C)c3)ccc2=O)cc1 [Example 56, methyl 4-{2-[1-(1-methyl-1H-pyrazol-4-yl)-4-oxo-1,4-dihydropyridazin-3-yl]ethyl}benzoate] |
| < 0.1 | COCCOc1cnc2ccc(CCc3nn(-c4cnn(C)c4)ccc3=O)cc2c1 [Example 57, 3-{2-[3-(2-methoxyethoxy)quinolin-6-yl]ethyl}-1-(1-methyl-1H-pyrazol-4-yl)pyridazin-4(1H)-one] |
| < 0.1 | CCOc1cnc2ccc(CCc3nn(-c4cnn(C)c4)ccc3=O)cc2c1 [Example 58, 3-[2-(3-ethoxyquinolin-6-yl)ethyl]-1-(1-methyl-1H-pyrazol-4-yl)pyridazin-4(1H)-one] |
| < 0.1 | COc1ccnc2ccc(CCc3nn(-c4cnn(C)c4)ccc3=O)cc12 [Example 59, 3-[2-(4-methoxyquinolin-6-yl)ethyl]-1-(1-methyl-1H-pyrazol-4-yl)pyridazin-4(1H)-one] |
| 1 to 3 | Cn1cc(-n2ccc(=O)c(CCc3ccc4nccnc4c3)n2)cn1 [Example 60, 1-(1-Methyl-1H-pyrazol-4-yl)-3-[2-(quinoxalin-6-yl)ethyl]pyridazin-4(1H)-one] |
| < 0.1 | Cn1cc(-n2ccc(=O)c(COc3ccc4ncc(O)cc4c3)n2)cn1 [Example 61, 3-Hydroxy-6-{[1-(1-methyl-1H-pyrazol-4-yl)-4-oxo-1,4-dihydropyridazin-3-yl]methoxy}quinolinium chloride] |
| < 0.1 | Cn1cc(-n2ccc(=O)c(COc3ccc4ncc(OCC(C)(C)O)cc4c3)n2)cn1 [Example 62, 3-({[3-(2-Hydroxy-2-methylpropoxy)quinolin-6-yl]oxy}methyl)-1-(1-methyl-1H-pyrazol-4-yl)pyridazin-4(1H)-one] |
| < 0.1 | Cn1cc(-n2ccc(=O)c(COc3ccc4ncc(OC5COC5)cc4c3)n2)cn1 [Example 63, 1-(1-Methyl-1H-pyrazol-4-yl)-3-({[3-(oxetan-3-yloxy)quinolin-6-yl]oxy}methyl)pyridazin-4(1H)-one] |
| < 0.1 | [2H]C([2H])([2H])C([2H])([2H])Oc1cnc2ccc(OCc3nn(-c4cnn(C)c4)ccc3=O)cc2c1 [Example 64, 3-[({3-[(^2H5)ethyloxy]quinolin-6-yl}oxy)methyl]-1-(1-methyl-1H-pyrazol-4-yl)pyridazin-4(1H)-one] |
| < 0.1 | Cn1cc(-n2ccc(=O)c(COc3ccc4ncc(OCC(F)F)cc4c3)n2)cn1 [Example 65, 3-({[3-(2,2-difluoroethoxy)quinolin-6-yl]oxy}methyl)-1-(1-methyl-1H-pyrazol-4-yl)pyridazin-4(1H)-one] |
| < 0.1 | Cn1cc(-n2ccc(=O)c(COc3ccc4ncc(OC(F)F)cc4c3)n2)cn1 [Example 66, 3-({[3-(difluoromethoxy)quinolin-6-yl]oxy}methyl)-1-(1-methyl-1H-pyrazol-4-yl)pyridazin-4(1H)-one] |
| < 0.1 | CCn1cc(-n2ccc(=O)c(COc3ccc4ncc(Oc5ccccn5)cc4c3)n2)cn1 [Example 67, 1-(1-ethyl-1H-pyrazol-4-yl)-3-({[3-(pyridin-2-yloxy)quinolin-6-yl]oxy}methyl)pyridazin-4(1H)-one] |
| < 0.1 | CCn1cc(-n2ccc(=O)c(COc3ccc4ncc(OCC(F)F)cc4c3)n2)cn1 [Example 68, 3-({[3-(2,2-difluoroethoxy)quinolin-6-yl]oxy}methyl)-1-(1-ethyl-1H-pyrazol-4-yl)pyridazin-4(1H)-one] |
| < 0.1 | CCn1cc(-n2ccc(=O)c(COc3ccc4ncc(OC5CCOC5)cc4c3)n2)cn1 (centres unmarked) [Example 69, 1-(1-ethyl-1H-pyrazol-4-yl)-3-({[3-(tetrahydrofuran-3-yloxy)quinolin-6-yl]oxy}methyl)pyridazin-4(1H)-one] |
| < 0.1 | CCn1cc(-n2ccc(=O)c(COc3ccc4ncc(OCc5noc(C)n5)cc4c3)n2)cn1 [Example 70, 1-(1-ethyl-1H-pyrazol-4-yl)-3-[({3-[(5-methyl-1,2,4-oxadiazol-3-yl)methoxy]quinolin-6-yl}oxy)methyl]pyridazin-4(1H)-one] |
| < 0.1 | Cc1cnc2ccc(OCc3nn(-c4cnn(C)c4)ccc3=O)cc2c1 [Example 71, 1-(1-Methyl-1H-pyrazol-4-yl)-3-{[(3-methylquinolin-6-yl)oxy]methyl}pyridazin-4(1H)-one] |
| < 0.1 | CCc1cnc2ccc(OCc3nn(-c4cnn(C)c4)ccc3=O)cc2c1 [Example 72, 3-{[(3-ethylquinolin-6-yl)oxy]methyl}-1-(1-methyl-1H-pyrazol-4-yl)pyridazin-4(1H)-one] |
| < 0.1 | COCc1cnc2ccc(OCc3nn(-c4cnn(C)c4)ccc3=O)cc2c1 [Example 73, 3-({[3-(methoxymethyl)quinolin-6-yl]oxy}methyl)-1-(1-methyl-1H-pyrazol-4-yl)pyridazin-4(1H)-one] |
| < 0.1 | Cn1cc(-n2ccc(=O)c(COc3ccc4ncc(-c5cccnc5)cc4c3)n2)cn1 [Example 74, 1-(1-Methyl-1H-pyrazol-4-yl)-3-{[(3-pyridin-3-ylquinolin-6-yl)oxy]methyl}pyridazin-4(1H)-one] |
| < 0.1 | Cn1cc(-c2cnc3ccc(OCc4nn(-c5cnn(C)c5)ccc4=O)cc3c2)cn1 [Example 75] |
| < 0.1 | CCn1cc(-n2ccc(=O)c(COc3ccc4ncc(-c5ccc(S(C)(=O)=O)cc5)cc4c3)n2)cn1 [Example 76, 1-(1-Ethyl-1H-pyrazol-4-yl)-3-[({3-[4-(methylsulfonyl)phenyl]quinolin-6-yl}oxy)methyl]pyridazin-4(1H)-one] |
